Source: ChEMBL document CHEMBL1201862, “PubChem BioAssay data set” (2004)
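Interpolation was linear, between the two tested concentrations surrounding the appropriate level; five concentrations were tested over 48 hours in 96-well plates. GI50 = concentration required for 50% inhibition of growth.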 Active and inactive are the calls of the source. Cut-off read from the data, not from the text of the source: active = GI50 up to about 1.1 µM and inactive = higher.

What was measured:
Experiment in all cases: inhibition of tumour cell growth, NCI panel, 48 h
SW-620 = system: SW-620
LOX IMVI = system: LOX IMVI
DMS-273 = system: DMS-273
DLD-1 = system: DLD-1
HCT-116 = system: HCT-116
786-0 = system: 786-0
EKVX = system: EKVX
KM-20L2 = system: KM-20L2
SK-OV-3 = system: SK-OV-3
RPMI-8226 = system: RPMI-8226
HT-29 = system: HT-29
SF-295 = system: SF-295
SK-MEL-5 = system: SK-MEL-5
XF498 = system: XF498
HOP-18 = system: HOP-18
HOP-62 = system: HOP-62
CAKI-1 = system: CAKI-1
SK-MEL-2 = system: SK-MEL-2
SNB-19 = system: SNB-19
A498 = system: A498
UACC-257 = system: UACC-257
MOLT-4 = system: MOLT-4
U-251 = system: U-251
UACC-62 = system: UACC-62
KM12 = system: KM12
UO-31 = system: UO-31
SNB-78 = system: SNB-78
M14 = system: M14
TK-10 = system: TK-10
NCI-H460 = system: NCI-H460
Malme-3M = system: Malme-3M
RXF 393 = system: RXF 393
A549 = system: A549
DMS-114 = system: DMS-114
OVCAR-8 = system: OVCAR-8
HOP-92 = system: HOP-92
NCI-H522 = system: NCI-H522
OVCAR-4 = system: OVCAR-4
HCT-15 = system: HCT-15
IGROV-1 = system: IGROV-1
SN12C = system: SN12C
OVCAR-3 = system: OVCAR-3
ACHN = system: ACHN
HCC 2998 = system: HCC 2998
SNB-75 = system: SNB-75
OVCAR-5 = system: OVCAR-5
LXFL 529 = system: LXFL 529
K562 = system: K562
SK-MEL-28 = system: SK-MEL-28
SF-539 = system: SF-539
NCI-H23 = system: NCI-H23
COLO 205 = system: COLO 205
NCI-H226 = system: NCI-H226
CCRF-CEM = system: CCRF-CEM
HL-60 = system: HL-60
M19-MEL = system: M19-MEL
NCI/ADR-RES = system: NCI/ADR-RES
MCF7 = system: MCF7
SF-268 = system: SF-268

Structure (SMILES): C[C@]12CC[C@H](OC3CCCCO3)CC1=CC[C@@H]1C2CC[C@]2(C)/C(=N/O)CCC12 (stereo partly specified)
- GI50 (SW-620): 36.9 µM (inactive)
- GI50 (LOX IMVI): 13.8 µM (inactive)
- GI50 (DMS-273): 17.5 µM (inactive)
- GI50 (DLD-1): 48.2 µM (inactive)
- GI50 (HCT-116): 16.1 µM (inactive)
- GI50 (786-0): 20.4 µM (inactive)
- GI50 (EKVX): 23.7 µM (inactive)
- GI50 (KM-20L2): 12.6 µM (inactive)
- GI50 (SK-OV-3): 34.9 µM (inactive)
- GI50 (RPMI-8226): 10.6 µM (inactive)
- GI50 (HT-29): 12.3 µM (inactive)
- GI50 (SF-295): 15.1 µM (inactive)
- GI50 (SK-MEL-5): 88.9 µM (inactive)
- GI50 (XF498): 40.6 µM (inactive)
- GI50 (HOP-18): 16 µM (inactive)
- GI50 (HOP-62): > 100 µM (inactive)
- GI50 (CAKI-1): 40.6 µM (inactive)
- GI50 (SK-MEL-2): 36.8 µM (inactive)
- GI50 (SNB-19): 26.5 µM (inactive)
- GI50 (A498): > 100 µM (inactive)
- GI50 (UACC-257): 30.3 µM (inactive)
- GI50 (MOLT-4): 10.9 µM (inactive)
- GI50 (U-251): 19.6 µM (inactive)
- GI50 (UACC-62): 42.7 µM (inactive)
- GI50 (KM12): 15.6 µM (inactive)
- GI50 (UO-31): 39.1 µM (inactive)
- GI50 (SNB-78): 20.7 µM (inactive)
- GI50 (M14): 21.4 µM (inactive)
- GI50 (TK-10): 30.5 µM (inactive)
- GI50 (NCI-H460): 18.8 µM (inactive)
- GI50 (Malme-3M): 17.9 µM (inactive)
- GI50 (RXF 393): 23.2 µM (inactive)
- GI50 (A549): 18.5 µM (inactive)
- GI50 (DMS-114): 17.5 µM (inactive)
- GI50 (OVCAR-8): 19.2 µM (inactive)
- GI50 (HOP-92): 23.9 µM (inactive)
- GI50 (NCI-H522): 16.9 µM (inactive)
- GI50 (OVCAR-4): 16.4 µM (inactive)
- GI50 (HCT-15): 14.5 µM
- GI50 (IGROV-1): > 100 µM (inactive)
- GI50 (SN12C): 14.2 µM (inactive)
- GI50 (OVCAR-3): 17 µM (inactive)
- GI50 (ACHN): 18.2 µM (inactive)
- GI50 (HCC 2998): 17.5 µM (inactive)
- GI50 (SNB-75): 20.5 µM (inactive)
- GI50 (OVCAR-5): 19.4 µM (inactive)
- GI50 (LXFL 529): 16.6 µM (inactive)
- GI50 (K562): 14.4 µM (inactive)
- GI50 (SK-MEL-28): 21.3 µM (inactive)
- GI50 (SF-539): 47.1 µM (inactive)
- GI50 (NCI-H23): 19.9 µM (inactive)
- GI50 (COLO 205): > 10 µM (inactive)

Structure (SMILES): COC(=O)C[C@](O)(CCC(C)(C)O)C(=O)O[C@@H]1C(OC)=C[C@]23CCCN2CCc2cc4c(cc2[C@H]13)OCO4 [HARRINGTONINE]
- GI50 (SW-620): 0.119 µM (active)
- GI50 (NCI-H226): 0.0306 µM (active)
- GI50 (LOX IMVI): 0.047 µM (active)
- GI50 (DMS-273): 0.0288 µM (active)
- GI50 (DLD-1): 0.121 µM (active)
- GI50 (CCRF-CEM): 0.0508 µM (active)
- GI50 (HCT-116): 0.0336 µM (active)
- GI50 (EKVX): 0.0802 µM (active)
- GI50 (KM-20L2): 0.0843 µM (active)
- GI50 (SK-OV-3): 0.0984 µM (active)
- GI50 (RPMI-8226): 0.0566 µM (active)
- GI50 (HT-29): 0.0661 µM (active)
- GI50 (SF-295): 0.186 µM (active)
- GI50 (SK-MEL-5): 0.0557 µM (active)
- GI50 (XF498): < 0.01 µM (active)
- GI50 (HOP-18): 0.229 µM (active)
- GI50 (HL-60): 0.0403 µM (active)
- GI50 (HOP-62): 0.166 µM (active)
- GI50 (CAKI-1): 0.193 µM (active)
- GI50 (SK-MEL-2): 0.0989 µM (active)
- GI50 (M19-MEL): 0.107 µM (active)
- GI50 (SNB-19): 0.0509 µM (active)
- GI50 (NCI/ADR-RES): 7.74 µM (inactive)
- GI50 (A498): 0.073 µM (active)
- GI50 (UACC-257): 0.158 µM (active)
- GI50 (MOLT-4): 0.0333 µM (active)
- GI50 (U-251): 0.0515 µM (active)
- GI50 (UACC-62): 0.23 µM (active)
- GI50 (MCF7): 0.0288 µM (active)
- GI50 (KM12): 0.0693 µM (active)
- GI50 (UO-31): 1.7 µM (inactive)
- GI50 (SNB-78): 0.256 µM (active)
- GI50 (NCI-H460): < 0.0182 µM (active)
- GI50 (Malme-3M): 0.0284 µM (active)
- GI50 (RXF 393): 0.103 µM (active)
- GI50 (A549): 0.0579 µM (active)
- GI50 (DMS-114): 0.0152 µM (active)
- GI50 (SF-268): 0.148 µM (active)
- GI50 (OVCAR-8): 0.16 µM (active)
- GI50 (HOP-92): 0.164 µM (active)
- GI50 (NCI-H522): 0.0206 µM (active)
- GI50 (OVCAR-4): 0.0785 µM (active)
- GI50 (HCT-15): 0.379 µM
- GI50 (IGROV-1): 0.0505 µM (active)
- GI50 (SN12C): 0.212 µM (active)
- GI50 (OVCAR-3): 0.0598 µM (active)
- GI50 (HCC 2998): 0.0239 µM (active)
- GI50 (SNB-75): 0.209 µM (active)
- GI50 (OVCAR-5): 0.233 µM (active)
- GI50 (K562): 0.05 µM (active)
- GI50 (SK-MEL-28): 0.0593 µM (active)
- GI50 (SF-539): 0.0295 µM (active)
- GI50 (NCI-H23): 0.0863 µM (active)
- GI50 (COLO 205): 0.0977 µM (active)
